Measurements from patent publication US6696456B1, “Beta disubstituted metalloprotease inhibitors” (The Procter & Gamble Company, priority 1999, dated 2004).

Key:
[1] = system: human subject suffering from rheumatoid arthritis; assay: Example A: oral tablet treatment of a subject with rheumatoid arthritis; format: in vivo; conditions: tablet with 15 mg compound, three tablets per day orally for 2 years, 60 kg human
Protocol: A tablet composition for oral administration, according to the present invention, is made comprising:
A human subject weighing 60 kg (132 lbs), suffering from rheumatoid arthritis, is treated by a method of this invention. Specifically, for 2 years, a regimen of three tablets per day is administered orally to said subject.

[2] = system: human subject suffering from osteoarthritis; assay: Example B: oral capsule treatment of a subject with osteoarthritis; format: in vivo; conditions: capsule with 70 mg compound daily for 5 years, 90 kg human
Protocol: A capsule for oral administration, according to the present invention, is made comprising:
A human subject weighing 90 kg (198 lbs.), suffering from osteoarthritis, is treated by a method of this invention. Specifically, for 5 years, the above capsule, which contains 70 mg of the compound of Example 4, is administered daily to said subject.

SMILES | inflammation, mobility and pain at the end of the treatment period [1] | erosion/fibrillation of the articular cartilage via x-ray, arthroscopy and/or MRI [2]
COc1ccc(-c2ccc(S(=O)(=O)N[C@@H](C(=O)O)[C@H](OCc3ccc(C)cc3)c3nccs3)cc2)cc1 [Example 1, (2R,3S)-2-(4′ -Methoxy-biphenyl-4-sulfonylamino)-3-(4-methyl-benzyloxy)-3-thiazol-2-yl-propionic Acid] | reduced inflammation and improved mobility without concomitant pain | –
CCS[C@H](c1ccccc1)[C@@H](NS(=O)(=O)c1ccc(-c2ccc(F)cc2)cc1)C(=O)O [Example 4, (2S,3R)-3-Ethylsulfanyl-2-(4′-fluoro-biphenyl-4-sulfonylamino)-3-phenyl-propionic Acid] | – | no further advancement of erosion/fibrillation of the articular cartilage
